Type in all cases: in vivo
The test system of data set [1] is wheat crop. To be noted: seed treatment, average of 4 replications.
Text: (§1) Mode of application for herbicides was spray and they were applied to soil after sowing of untreated seeds or seeds treated with safeners.
as §1

The test system of data set [2] is wheat crop. As to conditions: spray to soil; for % Phytotoxicity 7 DAA: 7 days after administration; for % Phytotoxicity 7 DAA / % Phytotoxicity 14 DAA / % Phytotoxicity 21 DAA / % Phytotoxicity 28 DAA / % Phytotoxicity 35 DAA: average of 4 replications; for % Phytotoxicity 14 DAA: 14 days after administration; for % Phytotoxicity 21 DAA: 21 days after administration; for % Phytotoxicity 28 DAA: 28 days after administration; for % Phytotoxicity 35 DAA: 35 days after administration; for Plants Standing: untreated check 8.0 (Table 5) / 8.3 (Table 6). Here is the method:
(§2) Experiments were carried out to evaluate the phytotoxicity, effect on plant height and effect on number of plants standing after treatments with combinations of one or more Chloroacetanilide herbicides with one or more safeners.
(§3) Application method was spray and applications were made to soil.
as §3

The test system of a further data set is Lolium multiflorum. As to the kind of experiment: % weed control of Lolium multiflorum, Propisochlor alone or with safener sprayed to soil. More on the design: concentration or dose not given beside the values. As to conditions: spray to soil, average of 4 replications; for % Weed Control 7 DAA: 7 days after administration; for % Weed Control 14 DAA: 14 days after administration; for % Weed Control 21 DAA: 21 days after administration; for % Weed Control 28 DAA: 28 days after administration; for % Weed Control 35 DAA: 35 days after administration. On the procedure: as §2
Below table gives summary of the formulation details and application details of Propisochlor and Mefenpyr-diethyl, Isoxadifen-ethyl and Cloquintocet-mexyl that were used in combination with Propisochlor for treatments. Application method was spray and applications were made to soil.
Below table gives summary of the formulation details and application details of Propisochlor and Dichlormid, Fenclorim, Benoxacor, Flurazole and Fluxofenim that were used in combination with Propisochlor for treatments. Application method was spray and applications were made to soil.
Below table gives summary of % weed control shown by untreated check, Propisochlor alone and combination of Propisochlor with Mefenpyr-diethyl, Isoxadifen-ethyl and Cloquintocet-mexyl at different application rates. % weed control was checked for weed Lolium multiflorum.
Below table gives summary of % weed control shown by untreated check, Propisochlor alone and combination of Propisochlor with Dichlormid, Fenclorim, Benoxacor, Flurazole and Fluxofenim at different application rates. % weed control was checked for weed Lolium multiflorum.

Where two headings read alike, the source gives them in different places.

Consider `N#Cc1nn(-c2c(Cl)cc(C(F)(F)F)cc2Cl)c(N)c1[S+]([O-])C(F)(F)F` (stereo not shown) [Treatment 1b], for which, in the data set with wheat crop [1] (Table 11, wheat crop, 15 DAA), the “Plant height 15 DAA” value is recorded as 10.8 and the “Standing Plants 15 DAA” value was found to be 22.5. Moreover, in the data set with wheat crop [1] (Table 11, wheat crop, 29 DAA), the “Plant height 29 DAA” value is recorded as 10.8 and the “Standing Plants 29 DAA” value is 33.8. Moreover, the “% Phytotoxicity 7 DAA” value in the data set on wheat crop [1] (wheat crop, Propisochlor sprayed to soil after sowing, 7 DAA) was determined as 0%. The “% Phytotoxicity 14 DAA” value in the data set on wheat crop [1] (wheat crop, Propisochlor sprayed to soil after sowing, 14 DAA) is given as 0%. Also, in the data set on wheat crop [1] (wheat crop, Propisochlor sprayed to soil after sowing, 21 DAA), the “% Phytotoxicity 21 DAA” value was 0%. In addition, the “% Phytotoxicity 28 DAA” value in the data set with wheat crop [1] (wheat crop, Propisochlor sprayed to soil after sowing, 28 DAA) worked out at 0%. Also, the “% Phytotoxicity 35 DAA” value in the data set on wheat crop [1] (wheat crop, Propisochlor sprayed to soil after sowing, 35 DAA) stood at 0%.
Take `CCc1cccc(C)c1N(COC(C)C)C(=O)CCl` [Treatment 2a]: in the data set on wheat crop [2], the “% Phytotoxicity 7 DAA” value came out at 98.0%, the “% Phytotoxicity 14 DAA” value is listed as 99.0%, the “% Phytotoxicity 21 DAA” value is reported as 99.5% and the “% Phytotoxicity 28 DAA” value is listed as 99.5%. In the data set with wheat crop [2], the “% Phytotoxicity 35 DAA” value is 99.0% and the “Plants Standing” value is recorded as 0.5. For the same compound, in the data set with Lolium multiflorum, the “% Weed Control 7 DAA” value is on record as 100%, the “% Weed Control 14 DAA” value is listed as 100%, the “% Weed Control 21 DAA” value is on record as 100% and the “% Weed Control 28 DAA” value was 100%. For the same compound, in the data set with Lolium multiflorum, the “% Weed Control 35 DAA” value worked out at 100%.
As to `N#Cc1nn(-c2c(Cl)cc(C(F)(F)F)cc2Cl)c(N)c1[S+]([O-])C(F)(F)F` (stereo not shown) [Treatment 9b], in the data set on wheat crop [1] (Table 12, 15 DAA), the “Plant height 15 DAA” value came out at 23.3 and the “Standing Plants 15 DAA” value is recorded as 10.8. Moreover, in the data set on wheat crop [1] (Table 12, 29 DAA), the “Plant height 29 DAA” value amounted to 34.3 and the “Standing Plants 29 DAA” value is listed as 10.8. Also, the “% Phytotoxicity 8 DAA” value with wheat crop [1] (wheat crop, Propisochlor sprayed to soil after sowing, 8 DAA) was 0%. Further, the “% Phytotoxicity 15 DAA” value with wheat crop [1] (wheat crop, Propisochlor sprayed to soil after sowing, 15 DAA) is given as 0%. Besides, the “% Phytotoxicity 22 DAA” value with wheat crop [1] (wheat crop, Propisochlor sprayed to soil after sowing, 22 DAA) was found to be 0%. In addition, the “% Phytotoxicity 29 DAA” value in the data set on wheat crop [1] (wheat crop, Propisochlor sprayed to soil after sowing, 29 DAA) was 0%. The “% Phytotoxicity 36 DAA” value in the data set on wheat crop [1] (wheat crop, Propisochlor sprayed to soil after sowing, 36 DAA) is on record as 0%.
In the case of `CCc1cccc(C)c1N(COC(C)C)C(=O)CCl` [Treatment 10a], in the data set on wheat crop [2], the “% Phytotoxicity 7 DAA” value is reported as 99.5%, the “% Phytotoxicity 14 DAA” value turned out to be 100%, the “% Phytotoxicity 21 DAA” value came to 100% and the “% Phytotoxicity 28 DAA” value is on record as 100%. For the same compound, in the data set on wheat crop [2], the “% Phytotoxicity 35 DAA” value turned out to be 100% and the “Plants Standing” value is recorded as 0.0. In addition, in the data set with Lolium multiflorum, the “% Weed Control 7 DAA” value was found to be 100.0%, the “% Weed Control 14 DAA” value turned out to be 100.0%, the “% Weed Control 21 DAA” value is 100.0% and the “% Weed Control 28 DAA” value is given as 99.3%. Further, in the data set with Lolium multiflorum, the “% Weed Control 35 DAA” value turned out to be 99.0%.
